Consider 25 compounds from US6803457B1, “Compounds for the treatment of ischemia” (Pfizer, Inc., priority 1999, dated 2004).

By melting point is commonly meant the temperature of the solid-liquid transition.

The compound `CNC(=O)[C@H]1O[C@@H](n2cnc3c(NCc4cc(Cl)ccc4OCc4ccco4)ncnc32)[C@H](O)[C@@H]1N` [Example 22, (2S,3S,4R,5R)3-Amino-5-{6-(5-chloro-2-(furan-2-ylmethoxy)benzylamino]purin-9-yl}-4-hydroxytetrahydrofuran-2-carboxylic acid methylamide] gave a melting point of 187 to 192 °C.

Consider `CNC(=O)[C@H]1O[C@@H](n2cnc3c(NCc4cc(Cl)ccc4OCC4CCOC4)ncnc32)[C@H](O)[C@@H]1N` (stereo partly drawn) [Example 11, (2S,3S,4R,5R)3-Amino-5-{6-[5-chloro-2-(tetrahydrofuran-3-ylmethoxy)-benzylamino]-purin-9yl}-4-hydroxytetrahydrofuran-2-carboxylic acid methylamide], for which the melting point fell in the range of 114 to 118 °C.

For `CNC(=O)[C@H]1O[C@@H](n2cnc3c(NCc4cc(Cl)ccc4OCc4cc(C)oc4C)ncnc32)[C@H](O)[C@@H]1N` [Example 24, (2S,3S,4R,5R)3-Amino-5-{6-[5-chloro-2-(2,5-dimethylfuran-3-ylmethoxy)benzylamino]purin-9-yl}-4-hydroxytetrahydrofuran-2-carboxylic acid methylamide], the melting point is 85 to 88 °C.

In turn, `CNC(=O)[C@H]1O[C@@H](n2cnc3c(NCc4cc(Cl)ccc4OCc4snnc4C)ncnc32)[C@H](O)[C@@H]1N` [Example 33, (2S,3S,4R,5R)3-Amino-5-{6-[5-chloro-2-(4-methyl-[1,2,3]thiadiazol-5-ylmethoxy)benzylamino]purin-9-yl}-4-hydroxytetrahydrofuran-2-carboxylic acid methylamide] showed a melting point of 107 to 110 °C.

Compound `CNC(=O)[C@H]1O[C@@H](n2cnc3c(NCc4cc(Cl)ccc4OCc4cccc(OC)c4)ncnc32)[C@H](O)[C@@H]1N` [Example 6, (2S,3S,4R,5R)3-Amino-5-{6-[5-chloro-2-(3-methoxy-benzyloxy)-benzylamino]-purin-9-yl}-4-hydroxytetrahydrofuran-2-carboxylic acid methylamide] showed a melting point of 102 to 108 °C.

In the case of `CNC(=O)[C@H]1O[C@@H](n2cnc3c(NCc4cc(Cl)ccc4OCC4CCCC4)ncnc32)[C@H](O)[C@@H]1N` [Example 18, (2S,3S,4R,5R)3-Amino-5-[6-(5-chloro-2-cyclopentylmethoxy-benzylamino)-purin-9-yl]-4-hydroxytetrahydrofuran-2-carboxylic acid methylamide], the melting point lay within 110.6 to 116.2 °C.

Take `CNC(=O)[C@H]1O[C@@H](n2cnc3c(NCc4cc(Cl)ccc4OCc4ccc(Cl)cc4)ncnc32)[C@H](O)[C@@H]1N` [Example 9, (2S,3S,4R,5R)3Amino-5-{6-[5-chloro-2-(4-chloro-benzyloxy)-benzylamino]-purin-9-yl}-4-hydroxytetrahydrofuran-2-carboxylic acid methylamide]: the melting point was in the range of 88 to 92 °C.

`CNC(=O)[C@H]1O[C@@H](n2cnc3c(NCc4cc(Cl)ccc4OCc4ccc5ccccc5n4)ncnc32)[C@H](O)[C@@H]1N` [Example 32, (2S,3S,4R,5R)3-Amino-5-{6-[5-chloro-2-(quinolin-2-ylmethoxy)benzylamino]purin-9-yl}-4-hydroxytetrahydrofuran-2-carboxylic acid methylamide] displayed a melting point of 130 to 134 °C.

In turn, `CNC(=O)[C@H]1O[C@@H](n2cnc3c(NCc4cc(Cl)ccc4OCc4cccc(Cl)c4)ncnc32)[C@H](O)[C@@H]1N` [Example 8, (2S,3S,4R,5R)3-Amino-5-{6-[5-chloro-2-(3-chloro-benzyloxy)-benzylamino]-purin-9-yl}-4-hydroxytetrahydrofuran-2-carboxylic acid methylamide] had a melting point of 85 to 90 °C.

For the compound `CNC(=O)[C@H]1O[C@@H](n2cnc3c(NCc4cc(Cl)ccc4OCc4ccccc4C)ncnc32)[C@H](O)[C@@H]1N` [Example 13, (2S,3S,4R,5R)3-Amino-5-{6-[5-chloro-2-(2-methyl-benzyloxy)-benzylamino]-purin-9-yl}-4-hydroxytetrahydrofuran-2-carboxylic acid methylamide], the melting point is 76 to 80 °C.

As to `CNC(=O)[C@H]1O[C@@H](n2cnc3c(NCc4cc(Cl)ccc4OCc4ccc(C)cc4)ncnc32)[C@H](O)[C@@H]1N` [Example 12, (2S,3S,4R,5R)3-Amino-5-{6-[5-chloro-2-(4-methyl-benzyloxy)-benzylamino]-purin-9-yl}-4-hydroxytetrahydrofuran-2-carboxylic acid methylamide], the melting point was 82 to 86 °C.

Consider `CNC(=O)[C@H]1O[C@@H](n2cnc3c(NCc4cc(Cl)ccc4OCc4cc(OC)ccc4OC)ncnc32)[C@H](O)[C@@H]1N` [Example 7, (2S,3S,4R,5R)3-Amino-5-{6-[5-chloro-2-(2,5-dimethoxy-benzyloxy)-benzylamino]-purin-9-yl}-4-hydroxytetrahydrofuran-2-carboxylic acid methylamide], for which the melting point lay in the range of 112 to 115 °C.

Compound `CNC(=O)[C@H]1O[C@@H](n2cnc3c(NCc4cc(Cl)ccc4OCc4ccc(CN(C)C)o4)ncnc32)[C@H](O)[C@@H]1N` [Example 26, (2S,3S,4R,5R)3-Amino-5-{6-[5-chloro-2-(5-dimethylaminomethylfuran-2-ylmethoxy)benzylamino]purin-9-yl}-4-hydroxytetrahydrofuran-2-carboxylic acid methylamide] had a melting point of 78 to 81 °C.

In the case of `CNC(=O)[C@H]1O[C@@H](n2cnc3c(NCc4cc(Cl)ccc4OCC4CCC4)ncnc32)[C@H](O)[C@@H]1N` [Example 5, (2S,3S,4R,5R)3-Amino-5-[6-(5-chloro-2-cyclobutylmethoxybenzylamino)-purin-9-yl]-4-hydroxytetrahydrofuran-2-carboxylic acid methylamide], the melting point lay in the range of 107 to 117 °C.

Turning to `CNC(=O)[C@H]1O[C@@H](n2cnc3c(NCc4cc(Cl)ccc4OCc4ccccc4Cl)ncnc32)[C@H](O)[C@@H]1N` [Example 10, (2S,3S,4R,5R)3-Amino-5-{6-[5-chloro-2-(2-chloro-benzyloxy)-benzylamino]-purin-9-yl}-4-hydroxytetrahydrofuran-2-carboxylic acid methylamide], the melting point is 88 to 92 °C.

`CNC(=O)[C@H]1O[C@@H](n2cnc3c(NCc4cc(Cl)ccc4OCC4OC(O)C(O)C(O)C4O)ncnc32)[C@H](O)[C@@H]1N` (stereo partly drawn) [Example 2, (2S,3S,4R,5R)3-Amino-5-{6-[5-chloro-2-(3,4,5,6-tetrahydroxytetrahydropyran-2-ylmethoxy)benzylamino]purin-9-yl}-4-hydroxytetrahydrofuran-2-carboxylic acid methylamide] displayed a melting point of 212 to 218 °C.

In turn, `CNC(=O)[C@H]1O[C@@H](n2cnc3c(NCc4cc(Cl)ccc4OCc4nc5ccccc5s4)ncnc32)[C@H](O)[C@@H]1N` [Example 28, (2S,3S,4R,5R)3-Amino-5-{6-[2-(benzothiazol-2-ylmethoxy)-5-chlorobenzylamino]purin-9-yl}-4-hydroxytetrahydrofuran-2-carboxylic acid methylamide] had a melting point of 127 to 129 °C.

In turn, `CNC(=O)[C@H]1O[C@@H](n2cnc3c(NCc4cc(Cl)ccc4OCc4cc5ccccc5o4)ncnc32)[C@H](O)[C@@H]1N` [Example 29, (2S,3S,4R,5R)3-Amino-5-{6-[2-(benzofuran-2-ylmethoxy)-5-chlorobenzylamino]purin-9-yl}-4-hydroxytetrahydrofuran-2-carboxylic acid methylamide] returned a melting point of 127 to 130 °C.

Compound `CNC(=O)[C@H]1O[C@@H](n2cnc3c(NCc4cc(Cl)ccc4OCc4ccns4)ncnc32)[C@H](O)[C@@H]1N` [Example 30, (2S,3S,4R,5R)3-Amino-5-{6-[5-chloro-2-(isothiazol-5-ylmethoxy)benzylamino]purin-9-yl}-4-hydroxytetrahydrofuran-2-carboxylic acid methylamide] gave a melting point of 180 to 183 °C.

For `CNC(=O)[C@H]1O[C@@H](n2cnc3c(NCc4cc(Cl)ccc4OCc4ccoc4)ncnc32)[C@H](O)[C@@H]1N` [Example 16, (2S,3S,4R,5R)3-Amino-5-{6-[5-chloro-2-(furan-3-ylmethoxy)benzylamino]-purin-9-yl}-4-hydroxytetrahydrofuran-2carboxylic acid methylamide], the melting point lay within 93 to 97 °C.

In the case of `CNC(=O)[C@H]1O[C@@H](n2cnc3c(NCc4cc(Cl)ccc4OCCN4CCOCC4)ncnc32)[C@H](O)[C@@H]1N` [Example 4, (2S,3S,4R,5R)3-Amino-5-{6-[5-chloro-2-(2-morpholin-4-ylethoxy)benzylamino]-purin-9-yl}-4-hydroxytetrahydrofuran-2-carboxylic acid methylamide], the melting point is 99 to 108 °C.

For `CNC(=O)[C@H]1O[C@@H](n2cnc3c(NCc4cc(Cl)ccc4OCc4cccnc4)ncnc32)[C@H](O)[C@@H]1N` [Example 25, (2S,3S,4R,5R)3-Amino-5-{6-[5-chloro-2-(pyridin-3-ylmethoxy)benzylamino]purin-9-yl}-4-hydroxytetrahydrofuran-2-carboxylic acid methylamide], the melting point fell in the range of 200 to 218 °C.

On to `CNC(=O)[C@H]1O[C@@H](n2cnc3c(NCc4cc(Cl)ccc4OCc4nccs4)ncnc32)[C@H](O)[C@@H]1N` [Example 27, (2S,3S,4R,5R)3-Amino-5-{6-[5-chloro-2-(thiazol-2-ylmethoxy)-benzylamino]-purin-9-yl}-4-hydroxy-tetrahydro-furan-2-carboxylic acid methylamide], for which the melting point fell in the range of 208 to 209 °C.

Consider `CNC(=O)[C@H]1O[C@@H](n2cnc3c(NCc4cc(Cl)ccc4OCc4ccccc4OC)ncnc32)[C@H](O)[C@@H]1N` [Example 15, (2S,3S,4R,5R)3-Amino-5-{6-[5-chloro-2-(2-methoxybenzyloxy)benzylamino]-purin-9-yl}-4-hydroxytetrahydrofuran-2-carboxylic acid methylamide], for which the melting point lay in the range of 102 to 123 °C.

On to `CNC(=O)[C@H]1O[C@@H](n2cnc3c(NCc4cc(Cl)ccc4OCC4CCOC4)ncnc32)[C@H](O)[C@@H]1N` (stereo partly drawn) [Example 20, (2S,3S,4R,5R)3-Amino-5-{6-[5-chloro-2-(tetrahydro-furan-3-ylmethoxy)-benzylamino]-purin-9-yl}-4-hydroxy-tetrahydro-furan-2-carboxylic acid methylamide], for which the melting point was in the range of 132 to 161 °C.
